One test concerns the target T1, hα2A receptor (Homo sapiens, UniProt P08913).
T1 construct: expressed in transfected cells; host or cells: CHO cells
T1 sequence (P08913 1-465): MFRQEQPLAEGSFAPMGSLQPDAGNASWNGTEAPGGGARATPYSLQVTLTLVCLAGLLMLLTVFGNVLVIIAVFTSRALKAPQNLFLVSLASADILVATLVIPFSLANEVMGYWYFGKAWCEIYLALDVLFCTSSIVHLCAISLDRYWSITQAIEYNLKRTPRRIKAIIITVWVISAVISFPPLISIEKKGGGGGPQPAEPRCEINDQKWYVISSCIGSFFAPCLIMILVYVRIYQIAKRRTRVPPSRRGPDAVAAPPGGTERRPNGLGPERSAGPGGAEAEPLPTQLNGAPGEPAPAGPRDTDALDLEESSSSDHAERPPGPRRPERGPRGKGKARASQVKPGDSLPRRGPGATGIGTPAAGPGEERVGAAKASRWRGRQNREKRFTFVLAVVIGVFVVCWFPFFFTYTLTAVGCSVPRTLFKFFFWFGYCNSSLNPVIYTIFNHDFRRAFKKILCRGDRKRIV
The test is described as follows: Radioligand binding experiment for α2A-adrenergic receptor ([3H]-raulwolscine). As to conditions: CHO cell membranes with human α2A receptor, [3H]raulwolscine 1 nM; read-out: pIC50 α2A (converted). As for the experimental part:
(§1) The interaction of the compounds of Formula (I) with hα2-receptors and h5-HT-transporters was assessed in in vitro radioligand binding experiments. In general, a low concentration of a radioligand with a high binding affinity for a particular receptor or transporter is incubated with a sample of a tissue preparation enriched in a particular receptor or transporter or with a preparation of cells expressing cloned human receptors in a buffered medium. During the incubation, the radioligand binds to the receptor or transporter. When equilibrium of binding is reached, the receptor bound radioactivity is separated from the non-bound radioactivity, and the receptor- or transporter-bound activity is counted. The interaction of the test compounds with the receptor is assessed in competition binding experiments. Various concentrations of the test compound are added to the incubation mixture containing the receptor- or transporter preparation and the radioligand. The test compound in proportion to its binding affinity and its concentration inhibits binding of the radioligand. The radioligand used for hα2A, hα2B and hα2C receptor binding was [^3H]-raulwolscine and for the h5-HT transporter was [^3H]paroxetine.
(§2) CHO cells, stabile transfected with human adrenergic-α2A-, -α2B or α2C receptor cDNA, were cultured in Dulbecco's Modified Eagle's Medium (DMEM)/Nutrient mixture Ham's F12 (ratio 1:1)(Gibco, Gent-Belgium) supplemented with 10% heat inactivated fetal calf serum (Life Technologies, Merelbeke-Belgium) and antibiotics (100 IU/ml penicillin G, 100 μg/ml streptomycin sulphate, 110 μg/ml pyruvic acid and 100 μg/ml L-glutamine). One day before collection, cells were induced with 5 mM sodiumbutyrate. Upon 80-90% of confluence, cells were scraped in phosphate buffered saline without Ca^2+ and Mg^2+ and collected by centrifugation at 1500×g for 10 min. The cells were homogenised in Tris-HCl 50 mM using an Ultraturrax homogenizer and centrifuged for 10 min at 23,500×g. The pellet was washed once by resuspension and rehomogenization and the final pellet was resuspended in Tris-HCl, divided in 1 ml aliquots and stored at −70° C.
(§3) Membranes were thawed and re-homogenized in incubation buffer (glycylglycine 25 mM, pH 8.0). In a total volume of 500 μl, 2-10 μg protein was incubated with [^3H]raulwolscine (NET-722) (New England Nuclear, USA) (1 nM final concentration) with or without competitor for 60 min at 25° C. followed by rapid filtration over GF/B filter using a Filtermatel 96 harvester (Packard, Meriden, Conn.). Filters were rinsed extensively with ice-cold rinsing buffer (Tris-HCl 50 mM pH 7.4). Filter-bound radioactivity was determined by scintillation counting in a Topcount (Packard, Meriden, Conn.) and results were expressed as counts per minute (cpm). Non-specific binding was determined in the presence of 1 μM oxymetazoline for hα2A- and hα2B receptors and 1 μM spiroxatrine for hα2C receptors.
(§4) Data from assays in the presence of compound were calculated as a percentage of total binding measured in the absence of test compound. Inhibition curves, plotting percent of total binding versus the log value of the concentration of the test compound, were automatically generated, and sigmoidal inhibition curves were fitted using non-linear regression. The pIC50 values of test compounds were derived from individual curves.

In another test the target is T2, hα2C receptor (Homo sapiens, UniProt P18825).
T2 construct: expressed in transfected cells; host or cells: CHO cells
T2 sequence (P18825 1-462): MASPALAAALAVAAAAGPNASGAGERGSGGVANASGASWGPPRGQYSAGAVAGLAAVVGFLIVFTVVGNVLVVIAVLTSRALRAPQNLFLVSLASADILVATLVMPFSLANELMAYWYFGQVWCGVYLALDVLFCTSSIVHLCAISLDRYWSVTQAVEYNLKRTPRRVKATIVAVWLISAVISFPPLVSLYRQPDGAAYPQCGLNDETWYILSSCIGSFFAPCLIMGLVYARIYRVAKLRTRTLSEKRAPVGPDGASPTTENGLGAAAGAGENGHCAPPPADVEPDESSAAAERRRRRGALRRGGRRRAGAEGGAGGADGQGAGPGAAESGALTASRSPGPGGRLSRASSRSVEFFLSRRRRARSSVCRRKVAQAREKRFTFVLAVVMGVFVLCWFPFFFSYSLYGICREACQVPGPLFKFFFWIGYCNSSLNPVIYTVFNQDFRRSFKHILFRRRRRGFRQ
The test is described as follows: Radioligand binding experiment for α2C-adrenergic receptor ([3H]-raulwolscine). As to conditions: CHO cell membranes with human α2C receptor, [3H]raulwolscine 1 nM; read-out: pIC50 α2C (converted). As for the experimental part: as §1, §2, §3, §4

The target in the next test is T3, h5-HT transporter (Homo sapiens, UniProt P31645).
T3 construct: Human platelet membranes (Oceanix Biosciences Corporation, Hanover, Md., USA) were thawed; tissue Oceanix Biosciences Corporation; host or cells: human platelet membranes
The test is described as follows: Radioligand binding experiment for 5-HT transporter ([3H]paroxetine). As to conditions: human platelet membranes, [3H]paroxetine 0.5 nM. As for the experimental part:
as §1
Human platelet membranes (Oceanix Biosciences Corporation, Hanover, Md., USA) were thawed, diluted in buffer (Tris-HCl 50 mM, 120 mM NaCl and 5 mM KCl) and quickly (max 3 s) homogenised with an Ultraturrax homogenizer. In a total volume of 250 μL, 50-100 μg protein was incubated with [^3H]paroxetine (NET-869) (New England Nuclear, USA) (0.5 nM final concentration) with or without competitor for 60 min at 25° C. Incubation was stopped by rapid filtration of the incubation mixture over GF/B filters, pre-wetted with 0.1% polyethyleneamine, using a Filtermatel 96 harvester (Packard, Meriden, Conn.). Filters were rinsed extensively with ice-cold buffer and radioactivity on the filters was counted in a Topcount liquid scintillation counter (Packard, Meriden, Conn.). Data were expressed as cpm. Imipramine (at 1 μM final concentration) was used to determine the non-specific binding.
as §4

T3 sequence (P31645 whole entry): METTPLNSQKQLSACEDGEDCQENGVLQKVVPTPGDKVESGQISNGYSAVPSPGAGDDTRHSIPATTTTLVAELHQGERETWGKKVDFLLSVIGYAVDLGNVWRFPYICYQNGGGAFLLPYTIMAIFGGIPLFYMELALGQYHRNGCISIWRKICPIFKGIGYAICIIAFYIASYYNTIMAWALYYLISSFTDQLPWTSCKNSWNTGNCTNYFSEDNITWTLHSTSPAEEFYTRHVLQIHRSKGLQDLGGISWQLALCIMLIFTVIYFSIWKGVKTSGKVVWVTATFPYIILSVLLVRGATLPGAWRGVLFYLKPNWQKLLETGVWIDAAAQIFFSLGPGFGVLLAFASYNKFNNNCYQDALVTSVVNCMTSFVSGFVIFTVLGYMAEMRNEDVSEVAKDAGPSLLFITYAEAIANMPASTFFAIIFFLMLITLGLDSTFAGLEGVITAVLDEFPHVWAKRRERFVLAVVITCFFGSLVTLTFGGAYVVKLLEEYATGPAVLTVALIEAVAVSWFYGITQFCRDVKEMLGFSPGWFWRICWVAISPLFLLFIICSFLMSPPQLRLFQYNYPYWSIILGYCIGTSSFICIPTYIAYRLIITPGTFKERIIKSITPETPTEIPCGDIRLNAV

Turning to `CC(=Cc1ccccc1)CN1CCN(CC2ON=C3c4ccc(N(C)CCO)cc4OCC32)CC1` (single isomer, unassigned) [Compound 33], the results for the IC50 on hα2A receptor, on hα2C receptor and at h5-HT transporter were 631 nM, 39.8 nM and 12.6 nM, respectively.

Take `CC(=Cc1ccccc1)CN1CCN(CC2ON=C3c4ccc(N(C)CCO)cc4OCC32)CC1` (single isomer, unassigned) [Compound 34]: the figures for the IC50 on hα2A receptor, on hα2C receptor and on h5-HT transporter were 2 nM, 0.398 nM and 63.1 nM, respectively.

For `C/C(=C\c1ccccc1)CN1CCN(CC2ON=C3c4ccc(N(C)CCN(C)C)cc4OCC32)CC1` (stereo not drawn) [Compound 1], the results for the IC50 at hα2A receptor, on hα2C receptor and on h5-HT transporter were 1.26 nM, 1 nM and 6.31 nM, respectively.

For the compound `COc1cc2c(cc1N)OCC1C2=NOC1CN1CCN(C/C(C)=C/c2ccccc2)CC1` (stereo not drawn) [Compound 8], the values for the IC50 at hα2A receptor, at hα2C receptor and on h5-HT transporter were 5.01 nM, 1.58 nM and 25.1 nM, respectively.

As to `COc1cc2c(cc1NC(C)=O)OCC1C2=NOC1CN1CCN(C/C(C)=C/c2ccccc2)CC1` (stereo not drawn) [Compound 10], the IC50 on hα2A receptor was 3.98 nM; at hα2C receptor, 1.26 nM; at h5-HT transporter it was 63.1 nM.

`COc1cc2c(cc1N(C)CCN(C)C)OCC1C2=NOC1CN1CCN(C/C(C)=C/c2ccccc2)CC1` (stereo not drawn) [Compound 11]: the IC50 on hα2A receptor is 2 nM; on hα2C receptor, 1.58 nM; at h5-HT transporter it was 3.16 nM.

In the case of `CC(=O)N1CCOc2cc3c(cc21)OCC1C3=NOC1CN1CCN(C/C(C)=C/c2ccccc2)CC1` (stereo not drawn) [Compound 12], the IC50 at hα2A receptor was 2 nM; at hα2C receptor, 1 nM; at h5-HT transporter, 31.6 nM.

In the case of `C/C(=C\c1ccccc1)CN1CCN(CC2ON=C3c4cc5c(cc4OCC32)N(C)CCO5)CC1` (stereo not drawn) [Compound 14], the IC50 was 15.8 nM at hα2A receptor, 5.01 nM at hα2C receptor and 31.6 nM on h5-HT transporter.

With `CCNC(=O)N1CCOc2cc3c(cc21)OCC1C3=NOC1CN1CCN(C/C(C)=C/c2ccccc2)CC1` (stereo not drawn) [Compound 16], the IC50 is 7.94 nM at hα2A receptor, 0.794 nM at hα2C receptor and 7.94 nM at h5-HT transporter.

In the case of `CNc1cc2c(cc1OC)C1=NOC(CN3CCN(CC(C)=Cc4cccc(F)c4)CC3)C1CO2` (stereo not drawn) [Compound 17], the IC50 is 7.94 nM at hα2A receptor, 2 nM on hα2C receptor and 12.6 nM on h5-HT transporter.

Turning to `CCNc1ccc2c(c1)OCC1C2=NOC1CN1CCN(CC(C)=Cc2ccccc2)CC1` (stereo not drawn) [Compound 18], the IC50 was 6.31 nM at hα2A receptor, 1.26 nM at hα2C receptor and 50.1 nM at h5-HT transporter.

For `CC(=Cc1ccc(F)cc1)CN1CCN(CC2ON=C3c4ccc(N(C)CCN)cc4OCC32)CC1` (stereo not drawn) [Compound 19], the IC50 was 12.6 nM on hα2A receptor, 2.51 nM on hα2C receptor and 10 nM at h5-HT transporter.

For the compound `CNCCNc1ccc2c(c1)OCC1C2=NOC1CN1CCN(CC(C)=Cc2ccc(F)cc2)CC1` (stereo not drawn) [Compound 20], the IC50 is 31.6 nM on hα2A receptor, 3.16 nM at hα2C receptor and 7.94 nM on h5-HT transporter.

As to `CC(=Cc1cccc(F)c1)CN1CCN(CC2ON=C3c4ccc(N(C)CCN(C)C)cc4OCC32)CC1` (stereo not drawn) [Compound 22], the IC50 was 1.58 nM on hα2A receptor, 1.26 nM at hα2C receptor and 1.58 nM on h5-HT transporter.

On to `CC(=Cc1ccc(F)cc1)CN1CCN(CC2ON=C3c4ccc(N(C)CCN(C)C)cc4OCC32)CC1` (stereo not drawn) [Compound 23], for which the values for the IC50 at hα2A receptor, on hα2C receptor and at h5-HT transporter were 10 nM, 2 nM and 5.01 nM, respectively.

On to `CCN(CC)CCN(C)c1ccc2c(c1)OCC1C2=NOC1CN1CCN(CC(C)=Cc2ccc(F)cc2)CC1` (stereo not drawn) [Compound 25], for which the IC50 at hα2A receptor was 6.31 nM; at hα2C receptor it was 0.398 nM; on h5-HT transporter it was 7.94 nM.

As for `COc1cc2c(cc1NCCN1CCCC1)OCC1C2=NOC1CN1CCN(CC(C)=Cc2cccc(F)c2)CC1` (stereo not drawn) [Compound 27], the IC50 was 15.8 nM at hα2A receptor, 3.16 nM at hα2C receptor and 5.01 nM on h5-HT transporter.

`COc1cc2c(cc1NCCN1CCCC1)OCC1C2=NOC1CN1CCN(CC(C)=Cc2ccc(F)cc2)CC1` (stereo not drawn) [Compound 29]: the figures for the IC50 at hα2A receptor, on hα2C receptor and on h5-HT transporter were 15.8 nM, 1.58 nM and 3.16 nM, respectively.

As to `CC(=Cc1ccc(F)cc1)CN1CCN(CC2ON=C3c4ccc(NCCN5CCOCC5)cc4OCC32)CC1` (stereo not drawn) [Compound 30], the IC50 is 50.1 nM on hα2A receptor, 3.98 nM at hα2C receptor and 10 nM on h5-HT transporter.

For the compound `CC(=Cc1ccccc1)CN1CCN(CC2ON=C3c4ccc(N(C)CCO)cc4OCC32)CC1` (stereo not drawn) [Compound 31], the IC50 is 1.26 nM at hα2A receptor, 1.26 nM at hα2C receptor and 25.1 nM at h5-HT transporter.

With `COc1cc2c(cc1N(C)CCO)OCC1C2=NOC1CN1CCN(CC(C)=Cc2ccccc2)CC1` (stereo not drawn) [Compound 32], the IC50 is 3.98 nM on hα2A receptor, 0.794 nM on hα2C receptor and 20 nM at h5-HT transporter.

For `CC(=Cc1cccc(F)c1)CN1CCN(CC2ON=C3c4ccc(N(C)CCO)cc4OCC32)CC1` (stereo not drawn) [Compound 35], the results for the IC50 at hα2A receptor, at hα2C receptor and on h5-HT transporter were 3.16 nM, 1.26 nM and 7.94 nM, respectively.

As to `COc1cc2c(cc1N(C)CCO)OCC1C2=NOC1CN1CCN(CC(C)=Cc2cccc(F)c2)CC1` (stereo not drawn) [Compound 36], the IC50 at hα2A receptor was 20 nM; at hα2C receptor, 2.51 nM; on h5-HT transporter it was 25.1 nM.

As for `CC(=Cc1ccc(F)cc1)CN1CCN(CC2ON=C3c4ccc(NCCO)cc4OCC32)CC1` (stereo not drawn) [Compound 37], the IC50 on hα2A receptor is 3.16 nM; on hα2C receptor, 5.01 nM; at h5-HT transporter, 63.1 nM.

As to `CC(=Cc1ccc(F)cc1)CN1CCN(CC2ON=C3c4ccc(N(C)CCO)cc4OCC32)CC1` (stereo not drawn) [Compound 38], the values for the IC50 on hα2A receptor, on hα2C receptor and at h5-HT transporter were 79.4 nM, 1.58 nM and 12.6 nM, respectively.

Values taken from patent publication US7265103B2, “Substituted amino isoxazoline derivatives and their use as anti-depressants” (Janssen Pharmaceutica NV., priority 2002, dated 2007).
